Reference: patent US4962109A, “Insecticidally and acaricidally active pyrimidine esters and intermediates therefor” (Imperial Chemical Industries PLC, priority 1985, dated 1990)
Like-named read-outs stand apart in the source and are kept apart here.

Assays:
Assay type in all cases: in vivo
[1] = test system: Tetranychus urticae (spider mites - adult); experiment: Contact test on spider mites - adult (TUa), French bean leaf, mortality; details: 72 h, read-out: TUa grading of mortality
In short: (§1)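 Product dissolved in acetone, diluted in water with 0.01% wetting agent to 500, 250 or 100 ppm; pests and/or host medium (plant or foodstuff) treated. Mortality or knockdown assessed 1–3 days later, graded A (80–100%), B (50–79%) or C (<50%).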

[2] = test system: Tetranychus urticae (spider mites - ova); experiment: Contact test on spider mites - ova (TUe), French bean leaf, mortality; details: 144 h, read-out: TUe grading of mortality
In short: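 Graded read-out: A 80-100%, B 50-79%, C below 50% mortality or knockdown, assessed usually 1-3 days post-treatment. Liquid preparations at 500, 250 or 100 ppm by weight, from acetone solution diluted in water with 0.01% wetting agent, applied to pests and/or their host plant or food medium.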

[3] = test system: Myzus persicae (aphids); experiment: Contact test on aphids (MP), Chinese Cabbage leaf, mortality; details: 72 h, read-out: MP grading of mortality
In short: as §1

[4] = test system: Nephotettix cincticeps (green leaf hopper - nymphs); experiment: Contact test on green leaf hopper nymphs (NC), Rice plant, mortality; details: read-out: NC grading of mortality
In short: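 Product dissolved in acetone, diluted in water with 0.01% wetting agent to 500, 250 or 100 ppm; nymphs and/or host rice plants treated. Mortality or knockdown assessed 1–3 days later, graded A (80-100%), B (50-79%), C (<50%).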

[5] = test system: Musca domestica (houseflies - adults); experiment: Knockdown test on houseflies - adults (MD/KD), Cotton wool/sugar; details: 500 ppm, 4 hours, read-out: MD/KD grading of knockdown
In short: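 Adult houseflies exposed to the compound at 500, 250 or 100 ppm in acetone/water with 0.01% wetting agent, on a cotton wool/sugar medium. Knockdown and mortality assessed, graded A (80-100%), B (50-79%) or C (<50%).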

[6] = test system: Musca domestica (houseflies - adults); experiment: Contact test on houseflies - adults (MD), Cotton wool/sugar, mortality; details: read-out: MD grading of mortality
In short: as §1

[7] = test system: Blattella germanica (cockroach nymphs); experiment: Residual test on cockroach nymphs (BG/R), Plastic pot, mortality; details: 72 h, 3 days, read-out: BG/R grading of mortality
Protocol: The activity of the Product was determined using a variety of insect pests. The Product was used in the form of liquid preparations containing 500, 250 or 100 parts per million (ppm) by weight of the Product. The preparations were made by dissolving the Product in acetone and diluting the solutions with water containing 0.01% by weight of a wetting agent sold under the trade name "LISSAPOL" NX until the liquid preparations contained the required concentration of the Product. "Lissapol" is a Registered Trade Mark.
The test procedure adopted with regard to each pest was basically the same and comprised supporting a number of the pests on a medium which was usually a host plant or a foodstuff on which the pests feed, and treating either or both the pests and the medium with the preparations. The mortality of the pests was then assessed at periods usually varying from one to three days after the treatment.
The results of the tests are given in Table III for each of the Products, at the rate in parts per million given in the second column as a grading of mortality designated as A, B or C wherein A indicates 80-100% mortality or knockdown, B indicates 50-79% mortality or knockdown and C indicates less than 50% mortality or knockdown.
BG/R Blattella germanica

[8] = test system: Heliothis virescens (tobacco budworm - larvae); experiment: Residual test on tobacco budworm larvae (HV), Cotton leaf, mortality; details: 48 h, read-out: HV grading of mortality
In short: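 Product in acetone diluted with water containing 0.01% Lissapol NX, at 500, 250 or 100 ppm; pests and/or host medium (here cotton leaf) treated. Mortality scored one to three days later, graded A (80-100%), B (50-79%), C (<50%).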

[9] = test system: Spodoptera exigua (lesser army worm - larvae); experiment: Residual test on lesser army worm larvae (SP), Cotton leaf, mortality; details: 48 h, read-out: SP grading of mortality
In short: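 Product dissolved in acetone and diluted in water with 0.01% wetting agent to 500, 250 or 100 ppm; larvae and/or cotton leaf host treated. Mortality or knockdown scored one to three days later and graded A (80-100%), B (50-79%) or C (<50%).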

[10] = test system: Diabrotica balteata (rootworm larvae); experiment: Residual test on rootworm larvae (DB), Filter paper/maize seed, mortality; details: 48 h, read-out: DB grading of mortality
In short: as §1

[11] = test system: Blattella germanica (cockroach nymphs); experiment: Contact test on cockroach nymphs (BG/C), Plastic pot, mortality; details: 48 h, read-out: BG/C grading of mortality
In short: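 Cockroach nymphs and/or their medium were treated with aqueous preparations at 500, 250 or 100 ppm (acetone solution diluted in water with 0.01% Lissapol NX wetting agent). Mortality or knockdown was assessed typically 1–3 days later and graded A (80–100%), B (50–79%) or C (<50%).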

[12] = 72 h, 500 ppm, contact, * test duration of 3 days
[13] = 24 h, 500 ppm, contact, ** test duration of 1 day
[14] = 500 ppm, residual, * test duration of 3 days

Row | Compound | mortality at 500 ppm ([1]; 500 ppm, contact, 3 days) | mortality at 500 ppm ([2]; 500 ppm, contact, 6 days) | mortality at 500 ppm ([3]; 500 ppm, contact, 3 days) | mortality at 500 ppm [4, 12] | pest or weed control at 500 ppm [5] | mortality at 500 ppm [6, 13] | mortality at 500 ppm [7] | mortality at 500 ppm [8] | mortality at 500 ppm [9, 14] | mortality at 500 ppm [10, 14] | other results
1 | Cc1c(F)c(F)c(COC(=O)C(c2cnc(C(C)(C)C)nc2)C(C)(C)C)c(F)c1F (racemic) [Compound 4, 2,3,5,6-tetrafluoro-4-methylbenzyl (RS)-2-[2-(1,1-dimethylethyl)pyrimidin-5-yl]-3,3-dimethylbutanoate] | 80 to 100% | < 50% | 80 to 100% | 80 to 100% | 80 to 100% | 80 to 100% | 50 to 79% | 80 to 100% | 80 to 100% | 80 to 100% | 
2 | C#CCc1c(F)c(F)c(COC(=O)C(c2cnc(C(C)(C)C)nc2)C(C)(C)C)c(F)c1F (racemic) [Compound 12, 2,3,5,6-tetrafluoro-4-(prop-2-yn-1-yl)benzyl (RS)-2-[2-(1,1-dimethylethyl)pyrimidin-5-yl]-3,3-dimethylbutanoate] | 80 to 100% | 80 to 100% | 80 to 100% | 80 to 100% | 80 to 100% | 80 to 100% | 80 to 100% | 80 to 100% | 80 to 100% | 80 to 100% | 
3 | COCc1c(F)c(F)c(COC(=O)C(c2cnc(C(C)(C)C)nc2)C(C)(C)C)c(F)c1F (racemic) [Compound 15, 2,3,5,6-tetrafluoro-4-(methoxymethyl)benzyl (RS)-2-[2-(1,1-dimethylethyl)pyrimidin-5-yl]-3,3-dimethylbutanoate] | 80 to 100% | 80 to 100% | 80 to 100% | 80 to 100% | 80 to 100% | 80 to 100% | 50 to 79% | 80 to 100% | 80 to 100% | 80 to 100% | 
4 | COCc1c(F)c(F)c(COC(=O)C(c2cnc(C(C)(C)C)nc2)C(C)(C)C)c(OC)c1F (racemic) [Compound 16, 2,3,5-trifluoro-6-methoxy-4-(methoxymethyl)benzyl (RS)-2-[2-(1,1-dimethylethyl)pyrimidin-5-yl]-3,3-dimethylbutanoate] | < 50% | 80 to 100% | 80 to 100% |  | 80 to 100% | 80 to 100% | 50 to 79% | 80 to 100% | 80 to 100% | < 50% | 
5 | CC(C)(C)c1ncc(C(C(=O)OCc2c(F)c(F)c(Cc3ccccc3)c(F)c2F)C(C)(C)C)cn1 (racemic) [Compound 17, 4-benzyl-2,3,5,6-tetrafluorobenzyl (RS)-2-[2-(1,1-dimethylethyl)pyrimidin-5-yl]-3,3-dimethylbutanoate] | 50 to 79% | < 50% | < 50% |  | < 50% |  | < 50% | < 50% |  |  | mortality at 500 ppm ([4]; 48 h, 500 ppm, contact, 2 days): < 50%; mortality at 500 ppm ([6]; 72 h, 500 ppm, contact, 3 days): < 50%; mortality at 500 ppm ([9]; 500 ppm, residual, 2 days): < 50%; mortality at 500 ppm ([10]; 500 ppm, residual, 2 days): 80 to 100%
6 | C#CCc1c(F)c(F)c(COC(=O)C(c2cnc(C(F)(F)F)nc2)C(C)C)c(F)c1F (racemic) [Compound 87, 2,3,5,6-tetrafluoro-4-(prop-2-yn-1-yl)benzyl (RS)-2-(2-trifluoromethylpyrimidin-5-yl)-3-methylbutanoate] | 80 to 100% | 80 to 100% | 80 to 100% | 50 to 79% | 80 to 100% | 80 to 100% | 80 to 100% | 50 to 79% | 80 to 100% | 80 to 100% | 
7 | C[C@@H](OC(=O)[C@@H](c1cnc(C(C)(C)C)nc1)C1CC1)c1cccc(Oc2ccccc2)n1 (racemic) [Compound 90, (RS)-1-(6-phenoxypyrid-2-yl)ethyl (RS)-2-[2-(1,1-dimethylethyl)pyrimidin-5-yl]-2-cyclopropylacetate] | 80 to 100% | < 50% | 80 to 100% | 80 to 100% | 80 to 100% | 80 to 100% | 80 to 100% | 80 to 100% | 80 to 100% | 80 to 100% | 
8 | COCc1c(F)c(F)c(COC(=O)C(c2cnc(C(C)(C)C)nc2)C2CC2)c(OC)c1F (racemic) [Compound 92, 3,5,6-trifluoro-2-methoxy-4-(methoxymethyl)benzyl (RS)-2-[2-(1,1-dimethylethyl)pyrimidin-5-yl]-2-cyclopropylacetate] | 80 to 100% | < 50% | 80 to 100% | 80 to 100% | 80 to 100% | 80 to 100% | < 50% | 80 to 100% | 80 to 100% | < 50% | 
9 | CC[Si](CC)(CC)CCCc1c(F)c(F)c(COC(=O)C(c2cnc(C(C)(C)C)nc2)C(C)(C)C)c(F)c1F (racemic) [Compound 218, 4-[3-(triethylsilyl)prop-1-yl]-2,3,5,6-tetrafluorobenzyl (RS)-2-[2-(1,1-dimethylethyl)pyrimidin-5-yl]-3,3-dimethylbutanoate] |  |  |  |  | < 50% |  |  | < 50% |  |  | mortality at 500 ppm [1]: 80 to 100%; mortality at 500 ppm [2]: < 50%; mortality at 500 ppm [3]: 80 to 100%; mortality at 500 ppm ([4]; 48 h): 80 to 100%; mortality at 500 ppm ([6]; 72 h): < 50%; mortality at 500 ppm [11]: < 50%; mortality at 500 ppm [9]: < 50%; mortality at 500 ppm [10]: < 50%
10 | C#CCSCc1c(F)c(F)c(COC(=O)C(c2cnc(C(C)(C)C)nc2)C(C)(C)C)c(F)c1F (racemic) [Compound 220] | 80 to 100% | < 50% | 80 to 100% |  | 80 to 100% |  |  | < 50% |  |  | mortality at 500 ppm ([4]; 48 h, 500 ppm, contact, 2 days): 80 to 100%; mortality at 500 ppm ([6]; 72 h, 500 ppm, contact, 3 days): 80 to 100%; mortality at 500 ppm ([11]; 500 ppm, contact, 2 days): < 50%; mortality at 500 ppm ([9]; 500 ppm, residual, 2 days): 50 to 79%; mortality at 500 ppm ([10]; 500 ppm, residual, 2 days): 50 to 79%
